Experimental data: US10138229B2, “Heteroaromatic compounds as BTK inhibitors” (Boehringer Ingelheim International GmbH, priority 2012, dated 2018)

biological target: full-length human His-tagged BTK (Homo sapiens (Human), UniProt Q06187); assay: BTK Assay (HTRF, Cisbio KinEASE-TK); format: biochemical; details: 6 nM BTK, 30 uM ATP, 15 min preincubation
Sequence (Q06187 whole entry): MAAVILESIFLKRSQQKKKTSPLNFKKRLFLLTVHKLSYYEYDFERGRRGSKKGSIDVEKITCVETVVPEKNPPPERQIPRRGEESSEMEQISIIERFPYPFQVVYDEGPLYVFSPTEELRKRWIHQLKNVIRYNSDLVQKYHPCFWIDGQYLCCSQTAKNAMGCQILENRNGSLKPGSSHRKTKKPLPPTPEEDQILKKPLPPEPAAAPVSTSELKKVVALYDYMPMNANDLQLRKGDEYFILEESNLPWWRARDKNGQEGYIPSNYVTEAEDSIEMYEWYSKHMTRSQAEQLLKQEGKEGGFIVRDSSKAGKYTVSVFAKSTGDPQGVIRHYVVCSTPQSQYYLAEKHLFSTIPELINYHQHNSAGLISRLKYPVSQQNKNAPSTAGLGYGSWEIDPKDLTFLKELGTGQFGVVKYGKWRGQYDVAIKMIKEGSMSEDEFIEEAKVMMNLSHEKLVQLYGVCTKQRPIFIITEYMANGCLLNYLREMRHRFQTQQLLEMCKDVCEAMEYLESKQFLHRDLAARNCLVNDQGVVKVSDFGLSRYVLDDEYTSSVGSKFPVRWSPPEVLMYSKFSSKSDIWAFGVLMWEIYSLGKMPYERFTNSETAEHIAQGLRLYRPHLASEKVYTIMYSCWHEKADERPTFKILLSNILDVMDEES
Protocol: An HTRF assay (Cisbio KinEASE-TK cat #62TKOPEC) was performed to quantitate the ability of test compounds to inhibit BTK mediated phosphorylation of substrate. Assays were assembled in 384 well plates where 6 nM of full-length human His-tagged BTK (Life Technologies cat # PV3587) and test compound at varying concentrations were preincubated for 15 minutes at 28° C. Then, 1 uM of TK substrate-biotin and 30 uM ATP were added and incubated for an additional 30 minutes at 28° C.

Row | IC50 | Compound
1 | 1.1 nM | CC#CC(=O)N1CC[C@]2(C1)C[C@H](n1nc(-c3ccc(OCCC)c(F)c3)c(C(N)=O)c1N)C2 [Example 161]
2 | 0.8 nM | CC#CC(=O)N1CC[C@]2(C1)C[C@H](n1nc(-c3ccc(Oc4ccccc4)nc3)c(C(N)=O)c1N)C2 [Example 150]
3 | 0.77 nM | C=CC(=O)N1CC2(CC(n3nc(-c4ccc(Oc5ccccc5)cc4)c(C(N)=O)c3N)C2)C1 [Example 35]
4 | 14 nM | CC#CC(=O)N1CC2(CC(n3nc(-c4ccc(C(F)(F)F)c(F)c4)c(C(N)=O)c3N)C2)C1 [Example 141]
5 | 45 nM | C=CC(=O)N1CCC[C@@H](n2cc(C(N)=O)c(-c3ccc(Oc4ccc(Cl)cc4)cc3)n2)C1 [Example 70]
6 | 19 nM | C=CC(=O)N1CC2(CC(n3nc(-c4ccc(OCC5CC5)cc4)c(C(N)=O)c3N)C2)C1 [Example 104]
7 | 93 nM | C=CC(=O)N1CCC[C@@H](n2cc(C(N)=O)c(-c3ccc(Oc4ccc(F)cc4)cc3)n2)C1 [Example 62]
8 | 10 nM | C=CC(=O)N1CCC[C@@H](n2cc(C(N)=O)c(-c3ccc(Oc4ccccc4)c(F)c3)n2)C1 [Example 23]
9 | 4800 nM | C=CC(=O)N1CCC[C@@H](n2cc(C(N)=O)c(-c3cccc(NS(C)(=O)=O)c3)n2)C1 [Example 17]
10 | 14 nM | CC#CC(=O)N1CCC[C@H]1Cc1nc(-c2ccc(Oc3ccccc3)cc2)c(C(N)=O)s1 [Example 53]
11 | 18 nM | CC#CC(=O)N1CCC[C@@H](c2nc(-c3ccc(Oc4ccccc4)cc3)c(C(N)=O)s2)C1 [Example 52]
12 | 16 nM | C=CC(=O)N1CC[C@]2(C1)C[C@H](n1nc(-c3ccc(OC4CC4)cc3)c(C(N)=O)c1N)C2 [Example 156]
13 | 90 nM | CNC(=O)/C=C/CN1CCC[C@@H](n2cc(C(N)=O)c(-c3ccc(Oc4ccccc4)cc3)n2)C1 [Example 90]
14 | 14 nM | CC#CC(=O)N1CC2(CC(n3nc(-c4ccc(OC(F)(F)F)cc4)c(C(N)=O)c3N)C2)C1 [Example 108]
15 | 2600 nM | C=CC(=O)N1CCC[C@@H](n2cc(C(N)=O)c(-c3ccc(-c4ccccc4)cc3)n2)C1 [Example 1]
16 | 1.2 nM | CC#CC(=O)N1CC[C@]2(C1)C[C@H](n1nc(-c3ccc(OC(C)C)cc3)c(C(N)=O)c1N)C2 [Example 168]
17 | 80 nM | CC#CC(=O)N1CCC[C@@H](n2cc(C(N)=O)c(-c3ccc(Oc4ccccc4)cc3)n2)C1 [Example 31]
18 | 95 nM | C=CC(=O)N1CCC2(CC1)CC(n1cc(C(N)=O)c(-c3ccc(Oc4ccccc4)cc3)n1)C2 [Example 86]
19 | 13 nM | CC#CC(=O)N1CC[C@]2(C1)C[C@H](n1cc(C(N)=O)c(-c3ccc(Oc4ccccc4)cc3)n1)C2 [Example 38]
20 | 3.2 nM | C=CC(=O)N1CCC[C@@H](n2cc(C(N)=O)c(-c3ccc(Oc4ccccc4)cc3)n2)C1 [Example 29]
21 | 9.2 nM | CC#CC(=O)N1CC2(CC(n3nc(-c4ccc(C(F)(F)F)cc4)c(C(N)=O)c3N)C2)C1 [Example 147]

Row | IC50 | Compound
22 | 1.1 nM | C=CC(=O)N1CC[C@]2(C1)C[C@@H](n1nc(-c3ccc(Oc4ccccc4)cn3)c(C(N)=O)c1N)C2 [Example 117]
23 | 41 nM | C=CC(=O)N1CCC[C@@H](n2cc(C(N)=O)c(-c3ccc(NC(=O)Nc4cccc(C)c4)cc3)n2)C1 [Example 60]
24 | 33 nM | C=CC(=O)N1CCC[C@@H](n2cc(C(N)=O)c(-c3ccc(OCc4ccccc4)cc3)n2)C1 [Example 2]
25 | 15 nM | CC#CC(=O)N1CCC(n2cc(C(N)=O)c(-c3ccc(Oc4ccccc4)cc3)n2)CC1 [Example 56]
26 | 7800 nM | C=CC(=O)N1CCC[C@@H](n2cc(C(N)=O)c(-c3ccc(-n4nc(C)cc4C)cc3)n2)C1 [Example 14]
27 | 1.1 nM | CC#CC(=O)N1CC2(CC(c3nc(-c4ccc(Oc5ccccc5)cc4)c(C(N)=O)s3)C2)C1 [Example 58]
28 | 22 nM | C=CC(=O)N1CC[C@]2(C1)C[C@H](n1nc(-c3ccc(F)c(OCC(F)(F)F)c3)c(C(N)=O)c1N)C2 [Example 146]
29 | 9.7 nM | C=CC(=O)N1CCC[C@H]1Cn1cc(C(N)=O)c(-c2ccc(Oc3ccccc3)cc2)n1 [Example 33]
30 | 1.6 nM | CC#CC(=O)N1CC[C@]2(C1)C[C@H](n1nc(-c3ccc(F)c(OCC(F)(F)F)c3)c(C(N)=O)c1N)C2 [Example 137]
31 | 41 nM | C=CC(=O)N1CCC[C@@H](n2cc(C(N)=O)c(-c3ccc(Oc4cccc(Cl)c4)cc3)n2)C1 [Example 68]
32 | 0.79 nM | CC#CC(=O)N1CC[C@]2(C1)C[C@H](n1nc(-c3ccc(Oc4ccccc4)cc3)c(C(N)=O)c1N)C2 [Example 91]
33 | 28 nM | C=CC(=O)N1CC[C@]2(C1)C[C@@H](n1nc(-c3ccc(OCCC)cc3)c(C(N)=O)c1N)C2 [Example 126]
34 | 24 nM | C=CC(=O)N1CC2(CC(n3nc(-c4ccc(OC(F)(F)F)cc4)c(C(N)=O)c3N)C2)C1 [Example 109]
35 | 4 nM | C=CC(=O)N1CCC[C@@H](n2cc(C(N)=O)c(-c3ccc(Oc4cccc(C)c4)cc3)n2)C1 [Example 72]
36 | 6500 nM | C=CC(=O)N1CCC[C@@H](n2cc(C(N)=O)c(-c3ccc(Oc4ccc(S(C)(=O)=O)cc4)cc3)n2)C1 [Example 64]
37 | 57 nM | CN(C)C/C=C/C(=O)N1CCC[C@@H](n2cc(C(N)=O)c(-c3ccc(Oc4ccccc4)cc3)n2)C1 [Example 30]
38 | 28 nM | C=CC(=O)N1CC[C@]2(C1)C[C@@H](n1nc(-c3ccc(C(F)(F)F)cc3)c(C(N)=O)c1N)C2 [Example 131]
39 | 16 nM | C=CC(=O)N1CC2(CC(n3nc(-c4ccc(OCCC)cc4)c(C(N)=O)c3N)C2)C1 [Example 111]
40 | 9.2 nM | C=CC(=O)N1CC2(CC(n3nc(-c4ccc(Oc5ccccc5)nc4)c(C(N)=O)c3N)C2)C1 [Example 101]
41 | 98 nM | C=CC(=O)N1CCC[C@@H](n2cc(C(N)=O)c(-c3ccc(OCc4ccccn4)c(Cl)c3)n2)C1 [Example 21]
42 | 34 nM | CC#CC(=O)N1CC[C@]2(C1)C[C@@H](n1cc(C(N)=O)c(-c3ccc(Oc4ccccc4)cc3)n1)C2 [Example 89]

Row | IC50 | Compound
43 | 14 nM | C=CC(=O)N1CCC[C@@H](n2cc(C(N)=O)c(-c3ccc(Cc4ccccc4)cc3)n2)C1 [Example 9]
44 | 1.9 nM | NC(=O)c1c(-c2ccc(Oc3ccccc3)cc2)nn(C2CC3(C2)CN(C(=O)/C=C/CN2CCOCC2)C3)c1N [Example 77]
45 | 2.7 nM | CC#CC(=O)N1CC2(CC(n3nc(-c4ccc(Oc5ccccc5)nc4)c(C(N)=O)c3N)C2)C1 [Example 102]
46 | 660 nM | C=CC(=O)N1CCC[C@@H](n2cc(C(N)=O)c(-c3ccc(Oc4ccc(C(F)(F)F)cc4)cc3)n2)C1 [Example 63]
47 | 52 nM | C=CC(=O)N1CCC2(CC1)CC(c1nc(-c3ccc(Oc4ccccc4)cc3)c(C(N)=O)s1)C2 [Example 84]
48 | 12 nM | C=CC(=O)N1CC2(CC(n3nc(-c4ccc(OCC(F)(F)F)cc4)c(C(N)=O)c3N)C2)C1 [Example 116]
49 | 3 nM | CC#CC(=O)N1CC2(CC(n3nc(-c4ccc(OCCC)c(Cl)c4)c(C(N)=O)c3N)C2)C1 [Example 148]
50 | 0.5 nM | CC#CC(=O)N1CC[C@]2(C1)C[C@@H](n1nc(-c3ccc(Oc4ccccc4)cn3)c(C(N)=O)c1N)C2 [Example 118]
51 | 17 nM | CC#CC(=O)N1CC[C@]2(C1)C[C@@H](n1nc(-c3ccc(Oc4ccccc4)nc3)c(C(N)=O)c1N)C2 [Example 122]
52 | 29 nM | C=CC(=O)N1CC2(CC(n3nc(-c4ccc(C(F)(F)F)c(F)c4)c(C(N)=O)c3N)C2)C1 [Example 142]
53 | 9.1 nM | C=CC(=O)N1CC[C@]2(C1)C[C@@H](n1nc(-c3ccc(Oc4ccccc4)nc3)c(C(N)=O)c1N)C2 [Example 123]
54 | 2 nM | C=CC(=O)N1CCC2(CC1)CC(n1nc(-c3ccc(Oc4ccccc4)cc3)c(C(N)=O)c1N)C2 [Example 82]
55 | 0.9 nM | CC#CC(=O)N1CC[C@]2(C1)C[C@H](n1nc(-c3ccc(OCC)cc3)c(C(N)=O)c1N)C2 [Example 167]
56 | 38 nM | CN(C)C/C=C/C(=O)N1CC[C@]2(C1)C[C@H](n1cc(C(N)=O)c(-c3ccc(Oc4ccccc4)cc3)n1)C2 [Example 37]
57 | 90 nM | CC#CC(=O)N1CCCC(Cn2cc(C(N)=O)c(-c3ccc(Oc4ccccc4)cc3)n2)C1 (centres unmarked) [Example 48]
58 | 3 nM | C=CC(=O)N1CCC[C@H]1Cc1nc(-c2ccc(Oc3ccccc3)cc2)c(C(N)=O)s1 [Example 50]
59 | 51 nM | CC#CC(=O)N1CCC(Cn2cc(C(N)=O)c(-c3ccc(Oc4ccccc4)cc3)n2)C1 (centres unmarked) [Example 43]
60 | 300 nM | CC#CC(=O)N1CCC2(CC1)CC(c1nc(-c3ccc(Oc4ccccc4)cc3)c(C(N)=O)s1)C2 [Example 85]
61 | 0.7 nM | CC#CC(=O)N1CC[C@]2(C1)C[C@H](n1nc(-c3ccc(Oc4ccccn4)cc3)c(C(N)=O)c1N)C2 [Example 151]
62 | 0.9 nM | CC#CC(=O)N1CC[C@]2(C1)C[C@H](n1nc(-c3ccc(C(F)(F)F)cc3)c(C(N)=O)c1N)C2 [Example 128]

biological target: EGFR (Homo sapiens (Human), UniProt P00533); assay: Inhibition of EGFR autophosphorylation in A431 human epithelial cells stimulated with EGF; format: cell-based; details: EGF 60 ng/mL, phospho EGFR, read-out: A431 p-EGFR IC50
Text: The compounds described herein show a range of selectivities against EGFR as measured in cellular assays (BTK activity measured by CD69 expression in primary CD19^+ cells; EGFR activity measured by EGFR phosphorylation in A431 cells).
Inhibition of EGFR Autophosphorylation in A431 Human Epithelial Cells Stimulated with Epithelial Growth Factor
A431 cells (ATCC # CRL-1555 FZ) are thawed and plated in DMEM containing 10% FBS in a 384-well tissue culture treated plate at 15,000 cells/well. After incubating for 24 hours at 37° C., 5% CO2, the cells are treated with test compound (1% DMSO final concentration) and incubated for 16 hours at 37° C., 5% CO2. EGF (Millipore, 01-107) is added at a final concentration of 60 ng/mL and incubated for 10 minutes. The medium is removed, the cells are lysed, and phospho EGFR is measured (Meso Scale Diagnostics, N31CB-1).

Chain of EGFR (P00533 25-1210): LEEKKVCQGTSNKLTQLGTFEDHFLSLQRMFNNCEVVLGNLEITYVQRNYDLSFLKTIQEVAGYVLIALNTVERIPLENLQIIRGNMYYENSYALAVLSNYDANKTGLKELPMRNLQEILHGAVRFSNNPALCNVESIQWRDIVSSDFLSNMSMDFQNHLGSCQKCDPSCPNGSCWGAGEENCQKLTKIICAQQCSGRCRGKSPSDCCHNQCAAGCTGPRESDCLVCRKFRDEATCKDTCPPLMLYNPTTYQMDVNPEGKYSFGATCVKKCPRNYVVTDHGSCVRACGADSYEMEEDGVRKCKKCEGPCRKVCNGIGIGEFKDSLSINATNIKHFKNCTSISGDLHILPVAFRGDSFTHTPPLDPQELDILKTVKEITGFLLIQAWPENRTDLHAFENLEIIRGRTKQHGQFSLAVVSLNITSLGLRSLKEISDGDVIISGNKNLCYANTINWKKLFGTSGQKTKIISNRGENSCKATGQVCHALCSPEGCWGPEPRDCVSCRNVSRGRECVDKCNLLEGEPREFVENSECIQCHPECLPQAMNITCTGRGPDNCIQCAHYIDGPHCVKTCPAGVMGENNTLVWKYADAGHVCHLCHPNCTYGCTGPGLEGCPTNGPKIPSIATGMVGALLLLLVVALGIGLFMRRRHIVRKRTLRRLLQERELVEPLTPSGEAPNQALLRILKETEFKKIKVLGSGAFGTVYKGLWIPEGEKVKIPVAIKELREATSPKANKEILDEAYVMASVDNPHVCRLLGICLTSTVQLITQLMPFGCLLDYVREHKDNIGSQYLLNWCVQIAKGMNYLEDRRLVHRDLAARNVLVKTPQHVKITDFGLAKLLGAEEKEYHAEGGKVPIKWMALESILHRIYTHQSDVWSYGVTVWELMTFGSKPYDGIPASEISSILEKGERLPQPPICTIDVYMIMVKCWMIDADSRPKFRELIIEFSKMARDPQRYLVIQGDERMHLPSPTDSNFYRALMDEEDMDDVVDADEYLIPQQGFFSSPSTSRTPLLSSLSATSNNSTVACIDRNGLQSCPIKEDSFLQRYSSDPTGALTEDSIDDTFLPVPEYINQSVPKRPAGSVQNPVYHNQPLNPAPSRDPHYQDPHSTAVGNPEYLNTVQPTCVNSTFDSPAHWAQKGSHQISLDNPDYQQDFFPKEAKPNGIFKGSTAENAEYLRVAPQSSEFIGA

Row | IC50 | Compound
63 | 400 nM | CC#CC(=O)N1CC[C@]2(C1)C[C@H](n1nc(-c3ccc(OCCC)c(F)c3)c(C(N)=O)c1N)C2 [Example 161]
64 | 6.6 nM | C=CC(=O)N1CCC[C@@H](n2nc(-c3ccc(Oc4ccccc4)cc3)c(C(N)=O)c2N)C1 [Example 54]

biological target: BTK (Homo sapiens (Human), UniProt Q06187); assay: Inhibition of B-cell activation measured by CD69 expression in primary CD19+ cells; format: cell-based; details: primary CD19+ cells stimulated with anti-human IgD, CD69 expression by flow cytometry
Protocol: Cells were collected and plated in a 96 flat bottom plate at a concentration of 2×10^5/well in RPMI media containing 10% FBS, rested for 1 hour at 37° c. Cells were treated with inhibitor in duplicates or vehicle control in 1% DMSO final concentration for 1 hour at 37° c., 5% CO2. […] B cells were analyzed by flow cytometry using a BD LSRII or BD FACsCanto Flow Cytometer. Viable cells were gated, and CD69 percentage was determined using FlowJo software.

Chain of BTK (Q06187 whole entry): as the sequence (Q06187 whole entry) above

Row | IC50 | Compound
65 | 2.1 nM | CC#CC(=O)N1CC[C@]2(C1)C[C@H](n1nc(-c3ccc(OCCC)c(F)c3)c(C(N)=O)c1N)C2 [Example 161]
